Experiments:
[1] = Cytotoxicity against human […] cells; format: cell-based
MCF7 = experiment: Cytotoxicity against human MCF7 cells; format: functional, cell-based
MDA-MB-231 = experiment: Cytotoxicity against human MDA-MB-231 cells; format: functional, cell-based

SMILES | IC50 [1] | IC50 (MCF7) | IC50 (MDA-MB-231)
CC(=O)O[C@H]1C(=O)[C@@]2(C)[C@H]([C@H](OC(=O)c3ccccc3)[C@]3(O)C[C@H](OC(=O)[C@H](O)[C@@H](NC(=O)c4ccccc4)c4ccccc4)C(C)=C1C3(C)C)[C@]1(OC(C)=O)CO[C@@H]1C[C@@H]2O [PACLITAXEL] | 27 µM | – | –
C=C1[C@H]2C[C@@H]3C[C@H](OC(C)=O)C(C)=C([C@@H](OC(C)=O)[C@H](OC(C)=O)[C@]2(C)[C@@H](OC(C)=O)C[C@@H]1O)C3(C)C | > 50 µM | > 50 µM | > 50 µM

From ChEMBL document CHEMBL1157091, “An unprecedented biogenetic-type chemical synthesis of 1(15-->11) abeotaxanes from normal taxanes” (J Nat Prod, 2010)
